{"source": "patent US20050214353A1", "about": "“Transdermal therapeutic system” (priority 2001, published 2005)", "origin": "cited, not measured here", "data": [{"smiles": "CCN(CC)C(=O)N[C@H]1C=C2c3cccc4[nH]cc(c34)C[C@H]2N(C)C1", "note": "[lisuride, 3-(9,10-didehydro-6-methyl-8α-ergolinyl)-1,1-diethyl urea]", "values": [{"measurement": "half-life in the blood", "result": "ca. 2 hrs"}]}]}
